SMILES strings stand for the structures. pKi: −log10 of the molar value.

Broadly, the pKi is the Ki on a negative log10 scale, so that one unit is a factor of ten. Read a high pKi as a small Ki.

Some targets named below: Carbonic anhydrase 9 (Homo sapiens, UniProt Q16790); Carbonic anhydrase 1 (Homo sapiens, UniProt P00915); Carbonic anhydrase 3 (Homo sapiens, UniProt P07451); Carbonic anhydrase 4 (Homo sapiens, UniProt P22748); Carbonic anhydrase 6 (Homo sapiens, UniProt P23280); Carbonic anhydrase 12 (Homo sapiens, UniProt O43570); Carbonic anhydrase 13 (Mus musculus, UniProt Q9D6N1); Carbonic anhydrase 14 (Homo sapiens, UniProt Q9ULX7).

Assay [1] deals with Carbonic anhydrase 5A, mitochondrial (Homo sapiens, UniProt P35218).
The target of assay [2] is Carbonic anhydrase 5B, mitochondrial (Homo sapiens, UniProt Q9Y2D0).
A further assay addresses Carbonic anhydrase 7 (Homo sapiens, UniProt P43166). Briefly: Inhibition of human cloned CA7 by stopped-flow CO2 hydration method.

Chain of Carbonic anhydrase 6 (P23280 whole entry): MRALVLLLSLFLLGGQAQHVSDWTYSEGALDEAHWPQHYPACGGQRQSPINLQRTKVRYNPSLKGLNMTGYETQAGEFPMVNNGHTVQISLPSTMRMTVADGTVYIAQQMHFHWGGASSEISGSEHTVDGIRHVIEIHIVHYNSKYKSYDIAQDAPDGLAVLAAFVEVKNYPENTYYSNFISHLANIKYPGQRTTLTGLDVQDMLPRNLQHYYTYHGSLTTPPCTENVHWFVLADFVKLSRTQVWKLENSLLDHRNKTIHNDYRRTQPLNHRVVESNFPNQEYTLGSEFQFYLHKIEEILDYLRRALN
Chain of Carbonic anhydrase 13 (Q9D6N1 whole entry): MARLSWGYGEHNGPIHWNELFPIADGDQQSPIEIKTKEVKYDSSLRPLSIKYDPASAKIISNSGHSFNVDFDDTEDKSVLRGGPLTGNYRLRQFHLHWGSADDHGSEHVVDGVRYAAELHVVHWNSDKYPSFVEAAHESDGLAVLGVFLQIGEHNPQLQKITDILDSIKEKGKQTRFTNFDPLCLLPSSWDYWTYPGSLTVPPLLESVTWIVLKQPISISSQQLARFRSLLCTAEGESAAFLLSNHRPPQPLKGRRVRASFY
Chain of Carbonic anhydrase 1 (P00915 whole entry): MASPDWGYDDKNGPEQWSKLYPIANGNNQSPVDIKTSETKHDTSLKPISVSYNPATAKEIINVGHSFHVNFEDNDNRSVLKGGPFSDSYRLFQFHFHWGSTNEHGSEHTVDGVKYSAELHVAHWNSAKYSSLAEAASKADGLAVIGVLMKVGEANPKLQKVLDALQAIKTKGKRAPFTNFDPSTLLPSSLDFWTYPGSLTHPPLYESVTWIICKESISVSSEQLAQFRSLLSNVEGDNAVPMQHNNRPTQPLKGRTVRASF
Chain of Carbonic anhydrase 4 (P22748 whole entry): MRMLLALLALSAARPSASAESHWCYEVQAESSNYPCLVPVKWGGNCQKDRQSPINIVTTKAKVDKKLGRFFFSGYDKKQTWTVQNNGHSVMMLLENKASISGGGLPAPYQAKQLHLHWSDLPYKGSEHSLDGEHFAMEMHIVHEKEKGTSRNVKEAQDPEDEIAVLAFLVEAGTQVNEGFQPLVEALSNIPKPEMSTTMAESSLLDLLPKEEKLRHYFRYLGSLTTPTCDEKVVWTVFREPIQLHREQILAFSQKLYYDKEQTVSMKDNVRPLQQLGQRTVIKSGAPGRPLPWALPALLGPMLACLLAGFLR
Chain of Carbonic anhydrase 3 (P07451 whole entry): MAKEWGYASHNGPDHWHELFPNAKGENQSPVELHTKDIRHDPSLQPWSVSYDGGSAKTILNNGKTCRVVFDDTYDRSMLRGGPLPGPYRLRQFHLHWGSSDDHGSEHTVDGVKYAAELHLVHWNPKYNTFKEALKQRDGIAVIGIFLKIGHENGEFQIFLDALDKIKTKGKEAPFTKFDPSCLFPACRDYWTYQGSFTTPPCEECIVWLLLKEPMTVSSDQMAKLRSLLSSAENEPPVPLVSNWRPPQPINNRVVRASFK
Chain of Carbonic anhydrase 14 (Q9ULX7 whole entry): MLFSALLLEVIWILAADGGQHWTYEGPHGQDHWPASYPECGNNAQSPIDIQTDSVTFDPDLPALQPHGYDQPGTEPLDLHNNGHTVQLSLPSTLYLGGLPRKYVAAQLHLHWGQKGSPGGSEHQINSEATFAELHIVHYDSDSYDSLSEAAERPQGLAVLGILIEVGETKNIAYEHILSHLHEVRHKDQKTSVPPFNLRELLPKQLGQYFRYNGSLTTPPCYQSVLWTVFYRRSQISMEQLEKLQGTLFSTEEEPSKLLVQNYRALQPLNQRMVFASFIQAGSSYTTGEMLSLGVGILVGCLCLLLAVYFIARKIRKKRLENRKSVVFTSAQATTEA
Chain of Carbonic anhydrase 5B, mitochondrial (Q9Y2D0 whole entry): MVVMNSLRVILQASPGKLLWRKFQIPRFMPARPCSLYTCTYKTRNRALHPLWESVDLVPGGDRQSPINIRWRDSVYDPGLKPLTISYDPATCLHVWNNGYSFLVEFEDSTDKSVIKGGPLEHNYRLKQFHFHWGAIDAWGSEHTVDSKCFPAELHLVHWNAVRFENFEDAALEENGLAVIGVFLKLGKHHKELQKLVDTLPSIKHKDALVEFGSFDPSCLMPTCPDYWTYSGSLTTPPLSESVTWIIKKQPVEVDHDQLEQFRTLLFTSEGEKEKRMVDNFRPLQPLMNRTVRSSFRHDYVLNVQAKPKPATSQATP
Chain of Carbonic anhydrase 12 (O43570 whole entry): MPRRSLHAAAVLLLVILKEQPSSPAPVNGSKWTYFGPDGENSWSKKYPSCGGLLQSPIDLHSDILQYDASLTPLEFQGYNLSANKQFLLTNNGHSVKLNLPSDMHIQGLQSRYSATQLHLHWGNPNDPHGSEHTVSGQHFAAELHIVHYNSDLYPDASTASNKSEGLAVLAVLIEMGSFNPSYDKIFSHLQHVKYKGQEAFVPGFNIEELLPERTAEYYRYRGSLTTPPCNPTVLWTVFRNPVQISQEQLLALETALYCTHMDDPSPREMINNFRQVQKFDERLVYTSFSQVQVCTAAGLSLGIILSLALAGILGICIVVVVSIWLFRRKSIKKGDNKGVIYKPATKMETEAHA
Chain of Carbonic anhydrase 5A, mitochondrial (P35218 whole entry): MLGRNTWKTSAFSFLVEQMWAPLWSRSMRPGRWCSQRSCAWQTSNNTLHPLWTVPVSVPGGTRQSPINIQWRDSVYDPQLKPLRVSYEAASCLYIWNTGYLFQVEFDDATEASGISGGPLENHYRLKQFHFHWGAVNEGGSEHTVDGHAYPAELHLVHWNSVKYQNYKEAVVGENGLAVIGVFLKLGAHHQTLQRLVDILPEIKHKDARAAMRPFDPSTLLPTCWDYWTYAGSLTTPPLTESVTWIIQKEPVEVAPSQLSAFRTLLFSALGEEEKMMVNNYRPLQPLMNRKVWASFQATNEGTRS
Chain of Carbonic anhydrase 7 (P43166 whole entry): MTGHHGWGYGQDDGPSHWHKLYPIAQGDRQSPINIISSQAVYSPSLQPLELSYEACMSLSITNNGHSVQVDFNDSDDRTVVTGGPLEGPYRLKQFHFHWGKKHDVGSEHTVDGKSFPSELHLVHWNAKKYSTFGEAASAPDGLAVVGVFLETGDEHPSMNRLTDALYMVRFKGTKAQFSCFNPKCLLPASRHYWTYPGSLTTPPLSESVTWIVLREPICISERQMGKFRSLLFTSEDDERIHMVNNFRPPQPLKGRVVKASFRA
Description for Carbonic anhydrase 12: Inhibition of human cloned CA12 catalytic domain by stopped-flow CO2 hydration method
Description for Carbonic anhydrase 13: Inhibition of mouse CA13 by stopped-flow CO2 hydration method
Description for Carbonic anhydrase 3: Inhibition of human cloned CA3 by stopped-flow CO2 hydration method
Description for Carbonic anhydrase 6: Inhibition of human cloned CA6 by stopped-flow CO2 hydration method
Description for Carbonic anhydrase 9: Inhibition of human cloned CA9 catalytic domain by stopped-flow CO2 hydration method

Regarding `NS(=O)(=O)Oc1ccc2c(c1)S(=O)(=O)C(CC1CCCCCC1)=C2`, the negative logarithm of the Ki (pKi) on Carbonic anhydrase 9 is 7.74; at Carbonic anhydrase 1, 5.44; on Carbonic anhydrase 3, 3.13; at Carbonic anhydrase 4, 6.07; in assay [1], 6.17; in assay [2], 7.74. Moreover, the pKi on Carbonic anhydrase 6 is 6.18; on Carbonic anhydrase 12, 7.89; on Carbonic anhydrase 13 it was 7.18; on Carbonic anhydrase 14 it was 7.89.
`NS(=O)(=O)Oc1ccc2c3c(c(=O)oc2c1)CCCCC3` [IROSUSTAT]: the pKi at Carbonic anhydrase 7 is 7.64; on Carbonic anhydrase 9, 7.47; on Carbonic anhydrase 1 it was 5.46; on Carbonic anhydrase 3, 3.15; on Carbonic anhydrase 4, 7.62; in assay [1], 6.12. Besides, the pKi in assay [2] is 6.14; on Carbonic anhydrase 6, 6.19; on Carbonic anhydrase 12, 7.92; on Carbonic anhydrase 13, 5.98; at Carbonic anhydrase 14, 6.12.

The values above are taken from ChEMBL document CHEMBL1155905, “Carbonic anhydrase inhibitors. Interaction of the antitumor sulfamate EMD 486019 with twelve mammalian carbonic anhydrase isoforms: Kinetic and X-ray crystallographic studies” (Bioorg Med Chem Lett, 2008).
